Experimental data taken from patent US7745450B2, “Pyrazolo[4,3-d]pyrimidines, processes for their preparation and methods for therapy” (Institute of Experimental Botany, priority 2002, dated 2010).
pIC50: −log10 of the molar value. Read-outs that look alike come from different tables or passages of the source.

Columns and labels:
[1] = target: cdk1/cyclin B (CDC2) (Homo sapiens, UniProt P06493); assay: CDK inhibition assay, cdk1/cyclin B (CDC2) kinase, histone phosphorylation; type: biochemical
Chain of cdk1/cyclin B (CDC2) (P06493 whole entry, species assumed): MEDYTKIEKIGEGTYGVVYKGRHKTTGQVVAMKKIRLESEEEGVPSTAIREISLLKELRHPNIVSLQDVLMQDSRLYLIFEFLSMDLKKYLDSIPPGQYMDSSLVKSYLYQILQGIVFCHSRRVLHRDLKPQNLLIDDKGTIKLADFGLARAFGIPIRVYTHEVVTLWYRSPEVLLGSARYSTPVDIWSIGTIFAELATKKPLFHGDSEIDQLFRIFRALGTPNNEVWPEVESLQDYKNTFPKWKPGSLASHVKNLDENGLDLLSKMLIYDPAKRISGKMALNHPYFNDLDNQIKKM
Chain of cdk1/cyclin B (CDC2) (P14635 whole entry partner, species assumed): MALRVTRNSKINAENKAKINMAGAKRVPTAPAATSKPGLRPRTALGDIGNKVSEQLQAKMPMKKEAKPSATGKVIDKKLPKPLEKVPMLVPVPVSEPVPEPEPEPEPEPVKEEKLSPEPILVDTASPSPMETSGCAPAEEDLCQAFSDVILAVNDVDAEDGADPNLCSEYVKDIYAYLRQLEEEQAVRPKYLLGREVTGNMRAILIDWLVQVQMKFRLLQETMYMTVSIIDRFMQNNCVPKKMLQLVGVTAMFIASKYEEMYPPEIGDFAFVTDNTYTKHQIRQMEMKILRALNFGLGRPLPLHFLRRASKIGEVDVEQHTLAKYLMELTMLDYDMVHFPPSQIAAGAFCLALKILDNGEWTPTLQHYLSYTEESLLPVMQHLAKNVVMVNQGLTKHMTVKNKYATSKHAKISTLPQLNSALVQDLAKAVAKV
Experimental: Selected compounds were tested for cdk1/cyclin B and cdk2/cyclin E inhibitory activity to determine the basic relationships between their interaction energy of docked complex and the inhibitory activity. Cdk2/cyclin E complex was produced in SIP insect cells co-infected with appropriate baculoviral construct. The cells were harvested 70 hours post infection in lysis buffer (50 mM Tris 7.4 pH, 150 mM NaCl, 5 mM EDTA, 20 mM NaF, 1% Tween 20, protease inhibitors) for 30 min on ice and the soluble fraction was recovered by centrifugation at 14.000 g for 10 min. The protein extract was stored at −80° C. until use. The final point test system for kinase activity measurement was used to carry out experiments on the kinetics under linear conditions. The assay mixture contained 1 mg/ml histone (Sigma Type III-S), 15 μM ATP, 0.2 μCi [γ-^32P] ATP and tested compound in a final volume of 20 μl, all in reaction buffer: 50 mM Hepes 7.4 pH, 10 mM MgCl2, 5 mM EGTA, 10 mM 2-glycerolphosphate, 1 mM NaF, 1 mM DTT and protease inhibitors. […] The measurement of kinase inhibition employed the digital imaging analyzer BAS 1800. The kinase activity was expressed as a percentage of maximum activity and the IC50 value was determined by graphic analysis. The kinase activity is expressed as a percentage of maximum activity, the apparent inhibition constants are determined by graphic analysis from dose-response curves presented on FIG. 1.

[2] = test system: Cytokinin-dependent tobacco callus Nicotiana tabacum L. cv. Wisconsins 38; assay: Tobacco callus bioassay for cytotoxicity (herbicidal activity); type: cell-based
Experimental: The novel compounds have also been tested in tobacco callus bioassay for cytotoxicity (herbicidal activity) and induction of cell death. The compounds to be tested were dissolved in dimethylsulfoxide (DMSO) and the solution brought up to 10^−3 M with distilled water. […] Cytokinin-dependent tobacco callus Nicotiana tabacum L. cv. Wisconsins 38 Murashige-Skoog medium, containing per 1 liter: 4 μmol nicotinic acid, 2.4 μmol pyridoxine hydrochloride, 1.2 μmol thiamine, 26.6 μmol glycine, 1.37 μmol glutamine, 1.8 μmol myo.inositol, 30 g of sucrose, 8 g of agar, […] α-naphthylacetic acid and 0.5 μmol 6-benzylaminopurine. Sub cultivation was carried out every three weeks. Fourteen days before the bioassay, the callus tissue was transferred to the media without 6-benzylaminopurine. Compounds were tested with two different concentrations of 6-benzylaminopurine (10^−5 M and 10^−6 M). Inhibitory growth activity was determined from the increase in fresh callus weight after four weeks of cultivation. Five replicates were prepared for each concentration tested and the entire test was repeated at least twice.

[3] = target: IκB-α kinase; assay: IκB-α kinase inhibition, in vitro kinase assay; type: biochemical
[4] = Nicotiana tabacum, 672 h, read-out: 10^−5 M BAP IC50, 10^−5 M 6-benzylaminopurine, four weeks
[5] = Nicotiana tabacum, 672 h, read-out: 10^−6 M BAP IC50, 10^−6 M 6-benzylaminopurine, four weeks

Compound	pIC50 [1]	pIC50 [2, 4]	pIC50 [2, 5]	pIC50 [3]	pIC50 ([2]; read-out: 10^−5 M BAP IC50, 10^−5 M 6-benzylaminopurine, four weeks)
CC[C@H](CO)Nc1nc(Nc2ccc(N)c(Cl)c2)c2[nH]nc(C(C)C)c2n1	8.70	4.32	5.06	8.05	
CC(C)c1n[nH]c2c(Nc3ccc(O)c(C(=O)O)c3)nc(N[C@@H](CO)C(C)C)nc12	9.40	4.74	5.92	9.00	
CC(C)c1n[nH]c2c(Nc3cccc(Cl)c3)nc(NCCN)nc12	6.85	< 4.30	4.32	6.60	
CC[C@H](CO)Nc1nc(Nc2cc(N)cc(Cl)c2)c2[nH]nc(C(C)C)c2n1	8.40	4.44	5.55	7.70	
CC[C@H](CO)Nc1nc(NCc2ccccc2)c2[nH]nc(C)c2n1	7.00	< 4.30	4.43	6.52	
COc1cccc(CNc2nc(N[C@@H](CO)C(C)C)nc3c(C(C)C)n[nH]c23)c1O	8.22	< 4.30	4.67	7.82	
CC[C@H](CO)Nc1nc(Nc2cccc(Cl)c2)c2[nH]nc(C(C)C)c2n1	8.40	4.35			< 4.30
CC[C@H](CO)Nc1nc(NCc2cccc(C)c2O)c2[nH]nc(C(C)C)c2n1	8.22	< 4.30	4.91	7.85	
CC[C@H](CO)Nc1nc(Nc2ccccc2)c2[nH]nc(C(C)C)c2n1	7.70	4.32	5.21	6.96	
CC[C@H](CO)Nc1nc(NCc2ccc(Cl)c(N)c2)c2[nH]nc(C(C)C)c2n1	7.10	4.59	5.89	7.62	
CC[C@H](CO)Nc1nc(NCc2cccc(OC(C)=O)c2)c2[nH]nc(C(C)C)c2n1	7.15	< 4.30	4.54	6.40	
CC(C)c1n[nH]c2c(NCc3ccccc3)nc(NC3CCC(N)CC3)nc12 (stereo not drawn) [Compound 268, 3-isopropyl-5-(4-aminocyclohexylamino)-7-benzylamino-pyrazolo[4,3-d]pyrimidine]	8.30	< 4.30	4.49		
Cc1n[nH]c2c(NCc3ccccc3)nc(NCCN)nc12 [2-aminoethylamino; benzylamino; methyl]	5.70	< 4.30	< 4.30	5.30	
CC[C@H](CO)Nc1nc(Nc2ccc(C(=O)O)c(Cl)c2)c2[nH]nc(C(C)C)c2n1	8.70	< 4.30	4.89	8.40	
Cc1n[nH]c2c(NCc3ccccc3)nc(NC3CCC(N)CC3)nc12 (stereo not drawn)	7.70	< 4.30	4.37	7.30	
CC(C)c1n[nH]c2c(Nc3cc(N)cc(Cl)c3)nc(N[C@@H](CO)C(C)C)nc12	8.10	4.42	5.38	7.82	
CC(C)c1n[nH]c2c(Nc3ccc(C(=O)O)c(Cl)c3)nc(N[C@@H](CO)C(C)C)nc12	9.05	4.59	5.85	8.70	
CC(C)c1n[nH]c2c(NCc3ccccc3)nc(NC3CCCCC3N)nc12 (stereo not drawn)	8.00	< 4.30	4.44	7.70	
CC(C)c1n[nH]c2c(Nc3cccc(Cl)c3)nc(N[C@@H](CO)C(C)C)nc12	8.40	< 4.30	4.96	8.05	
CC[C@H](CO)Nc1nc(Nc2ccc(Cl)c(C(=O)O)c2)c2[nH]nc(C(C)C)c2n1	9.00	4.55	5.82	8.70	
CC(C)c1n[nH]c2c(Nc3ccc(Cl)c(N)c3)nc(N[C@@H](CO)C(C)C)nc12	9.00	4.60	5.74	8.70	
CC(C)c1n[nH]c2c(Nc3cccc(Cl)c3)nc(NC3CCCCC3N)nc12 (stereo not drawn)	8.40	< 4.30	4.55	7.92	
CC(=O)Oc1ccccc1CNc1nc(N[C@@H](CO)C(C)C)nc2c(C(C)C)n[nH]c12	8.22	4.42	5.38	7.92	
CC(=O)c1ccccc1CNc1nc(NCCO)nc2c(C)n[nH]c12	8.00			7.30	
CC(C)c1n[nH]c2c(Nc3cccc(Cl)c3)nc(NCCO)nc12	6.96			6.55	
CC[C@H](CO)Nc1nc(NCc2ccccc2O)c2[nH]nc(C(C)C)c2n1	8.10			7.92	
CC(C)c1n[nH]c2c(Nc3cccc(Cl)c3)nc(NC3CCC(N)CC3)nc12 (stereo not drawn)	9.00	< 4.30	4.60	7.92	

Compound	pIC50 [1]	pIC50 [2, 4]	pIC50 [2, 5]	pIC50 [3]	pIC50 ([2]; read-out: 10^−5 M BAP IC50, 10^−5 M 6-benzylaminopurine, four weeks)
CC(C)c1n[nH]c2c(Nc3ccc(N)c(Cl)c3)nc(N[C@@H](CO)C(C)C)nc12	8.70	4.80	6.05	8.52	
Cc1n[nH]c2c(Nc3ccccc3)nc(NCCO)nc12 [2-hydroxyethylamino; anilino; methyl]	7.05			6.68	
Cc1n[nH]c2c(NCc3ccccc3)nc(N(CCO)CCO)nc12	6.05			5.68	
Cc1n[nH]c2c(NCc3cccc(Cl)c3O)nc(NCCO)nc12	8.00			7.52	
CC[C@H](CO)Nc1nc(NCc2cccc(Cl)c2O)c2[nH]nc(C(C)C)c2n1	8.15	4.34	5.17	7.92	
Cc1n[nH]c2c(NCc3c(O)cc(Cl)cc3O)nc(NCCO)nc12	8.30			7.92	
CC(C)c1n[nH]c2c(Nc3ccc(Cl)c(C(=O)O)c3)nc(N[C@@H](CO)C(C)C)nc12	9.00	< 4.30	5.02	8.70	
Cc1n[nH]c2c(Nc3ccc(N)c(Cl)c3)nc(NCCO)nc12	7.92			7.54	
CC[C@H](CO)Nc1nc(Nc2ccc(Cl)cc2)c2[nH]nc(C(C)C)c2n1	8.52	4.46	5.41	8.05	
Cc1n[nH]c2c(Nc3ccc(O)c(C(=O)O)c3)nc(NCCO)nc12	7.70			7.30	
CC(C)c1n[nH]c2c(NCc3ccccc3)nc(NCCO)nc12	6.00			5.64	
CC[C@H](CO)Nc1nc(N(C)Cc2ccc(O)c(O)c2)c2[nH]nc(C(C)C)c2n1	6.64			6.29	
CC(C)c1n[nH]c2c(Nc3cccc(Cl)c3)nc(NCCCN)nc12	7.70	< 4.30	4.35	7.10	
CC[C@H](CO)Nc1nc(NCc2ccc(OC)c(O)c2O)c2[nH]nc(C(C)C)c2n1	8.70			8.30	
Cc1n[nH]c2c(NCc3ccc(Cl)c(N)c3)nc(NCCO)nc12	6.70			6.10	
Cc1n[nH]c2c(NCc3ccc(O)c(O)c3)nc(NCCO)nc12	5.30			4.96	
CC(=O)c1cccc(CNc2nc(N[C@@H](CO)C(C)C)nc3c(C(C)C)n[nH]c23)c1	9.00			8.30	
CC(C)c1n[nH]c2c(N(C)CCc3ccc(O)c(O)c3)nc(N[C@@H](CO)C(C)C)nc12	7.05			6.82	
CC(C)c1n[nH]c2c(NCc3ccc(O)c(O)c3)nc(N[C@@H](CO)C(C)C)nc12	6.82			6.51	
CC(C)c1n[nH]c2c(NCc3ccc(Cl)c(O)c3O)nc(N[C@@H](CO)C(C)C)nc12	9.70			9.00	
CC(=O)Oc1cccc(CNc2nc(NCCO)nc3c(C)n[nH]c23)c1	6.40			5.77	
Cc1n[nH]c2c(Nc3ccc(Br)cc3)nc(NCCO)nc12	8.10			7.70	
CC[C@H](CO)Nc1nc(NCc2c(O)cc(OC)cc2O)c2[nH]nc(C(C)C)c2n1	9.10			8.52	
Cc1n[nH]c2c(NCc3ccc(Cl)c(N)c3N)nc(NCCO)nc12	6.22			6.15	
CC(C)c1n[nH]c2c(NCc3ccccc3)nc(N(CCO)CCO)nc12	6.40			5.96	
CC[C@H](CO)Nc1nc(NCc2ccc(O)c(O)c2)c2[nH]nc(C(C)C)c2n1	6.30			5.96	
